Legend:
Format in all cases: cell-based
[1] = tested on: Human colon cancer WiDr cells; assay: Measurement of cytotoxic activity for human cancer cells (2), Sulforhodamine B, WiDr; details: 72 hours
Description: (§1) Measurement of cytotoxic activity for human cancer cells (2)
(§2) Human colon cancer WiDr cells adjusted to a density of 6×10^4 cells/ml, human non-small cell lung carcinoma A549 cells adjusted to a density of 4×10^4 cells/ml or human prostate cancer DU-145 cells adjusted to a density of 6×10^4 cells/ml were dispensed into a 96 well test plate and cultured at 37° C. in a CO2 incubator. After 24 hours, varied concentration of the compound A, compound B or compound C was dispensed in 100 μl portions, and the cells were cultured at 37° C. for additional 72 hours in a CO2 incubator. After the culturing, the number of cells was determined using Sulforhodamine B, and the IC50 value of each compound for cell growth was calculated.

HeLa S3 cells = assay: Measurement of cytotoxic activity for human cancer cells (1), Cell Counting Kit; details: 72 h, cultured 3 days, read-out: IC50 value, cytotoxic activity (growth inhibition) for HeLa S3 cells
Description: Measurement of cytotoxic activity for human cancer cells (1)
HeLa S3 cells adjusted to a density of 6×10^4 cells/ml were dispensed in 200 μl portions, and various concentrations of the compound A and compound B respectively in 4 μl portions, into a 96 well test plate, and cultured at 37° C. for 3 days in a CO2 incubator. After the culturing, the degree of cell growth was measured using Cell Counting Kit (mfd. by DOJINDO), and the growth inhibition ratio at each concentration was obtained to calculate the IC50 value.

[2] = tested on: human prostate cancer DU-145 cells; assay: Measurement of cytotoxic activity for human cancer cells (2), Sulforhodamine B, DU-145; details: 72 hours
Description: as §1, §2

[3] = tested on: human non-small cell lung carcinoma A549 cells; assay: Measurement of cytotoxic activity for human cancer cells (2), Sulforhodamine B, A549; details: 72 hours; for IC50: Homo sapiens, read-out: IC50 value for cell growth, A549 cells
Description: as §1, §2

[4] = tested on: PAI-1 promoter gene expression in mink lung epithelial cells (MvlLu); assay: Measurement of TGF-β like activity, PAI-1 promoter luciferase reporter
From the text: Measurement of TGF-β like activity
In order to detect the TGF-β like activity, a screening system was constructed making use of the expression of a reporter gene. A fluorescent luciferase gene was transfected into downstream of the PAI-1 promoter gene of mink lung epithelial cells (MvlLu). in which expression of […] (PAI-1) is induced by TGF-β due to excess expression of TGF-β receptor (Journal of Biological Chemistxy, vol. 262, pp. 17467–17414, 1987), (Analytical Biochemistry, vol. 216, pp. 276–284, 1994).
Using the above cells, the luminous intensity obtained by adding each compound was used as the index of TGF-β like activity.

Row | Compound | cell growth inhibition activity for WiDr cells [1] | IC50 (HeLa S3 cells) [µM] | cell growth inhibition activity for DU-145 cells [2] | cell growth inhibition activity for A549 cells [3] | IC50 [3] [µM] | luminous intensity induced by the expression of PAI-1 promoter gene [4]
1 | CC1NC(=O)CC2/C=C/CCSSCC(NC1=O)C(=O)NC(C(C)C)C(O)CC(=O)O2 (stereo not drawn) [Compound A] | excellent cell growth inhibition activity | 1.6 | excellent cell growth inhibition activity | excellent cell growth inhibition activity | ≤ 0.005 | –
2 | CCC(C)C1NC(=O)C2CSSCC/C=C/C(CC(=O)NC(C)C(=O)N2)OC(=O)CC1O (stereo not drawn) [Compound B] | excellent cell growth inhibition activity | 1.2 | excellent cell growth inhibition activity | excellent cell growth inhibition activity | ≤ 0.005 | –
3 | CC(C)CC1NC(=O)C2CSSCC/C=C/C(CC(=O)NC(C)C(=O)N2)OC(=O)CC1O (stereo not drawn) [Compound C] | excellent cell growth inhibition activity | – | excellent cell growth inhibition activity | excellent cell growth inhibition activity | ≤ 0.005 | –
4 | TGF-β | – | – | – | – | – | increased the luminous intensity
